A short description of series [1]: Solubility of indacaterol maleate in water and in maleate buffer. Type of series: physicochemical. How it is done:
In Lot II, the concentration of indacaterol in Feedline A was 18% w/w and the concentration in the spray-blended bulk powder was just 4.1% w/w, as the remaining spray dried particles from Feedlines B and C contained no API.
Lot IV is formulated like Lot II except 20 mM sodium maleate (pH 5.5) was added to Feedline A. Sodium maleate was added to decrease the indacaterol solubility in water to about, 0.01 mg/ml (common ion effect). In this case, spray-blending reduced the dissolved indacaterol in the feedstock from about, 8.0% to 0.1%.
Estimated % Dissolved was calculated based on the feedstock compositions according to equation 1. The solubility of indacaterol in water is 0.2 mg/ml, and 0.01 mg/ml in 20 mM maleate buffer. The decreased solubility in maleate buffer is the result of the shift in the equilibrium towards precipitation of indacaterol maleate which occurs as a result of the addition of a common ion. The impact of spray-blending on the dissolved fraction is clearly evident by comparing Lots I and VI. In the spray-blended Lot I, the total drug loading is 1.4%, yet the dissolved fraction is just 4.9%. In contrast, for the single feedstock Lot VI, the drug content is actually higher (2%), yet the dissolved fraction is nearly 15%.

A further series concerns the target β2-adrenoceptor (Homo sapiens, UniProt P07550). The note with it: cited from earlier work.

In brackets after ≈: the same amount, converted by molar mass. Where a name gives a salt, the structure may show the parent alone. Read-outs that look alike come from different tables or passages of the source.

Sequence of β2-adrenoceptor (P07550 whole entry, species assumed): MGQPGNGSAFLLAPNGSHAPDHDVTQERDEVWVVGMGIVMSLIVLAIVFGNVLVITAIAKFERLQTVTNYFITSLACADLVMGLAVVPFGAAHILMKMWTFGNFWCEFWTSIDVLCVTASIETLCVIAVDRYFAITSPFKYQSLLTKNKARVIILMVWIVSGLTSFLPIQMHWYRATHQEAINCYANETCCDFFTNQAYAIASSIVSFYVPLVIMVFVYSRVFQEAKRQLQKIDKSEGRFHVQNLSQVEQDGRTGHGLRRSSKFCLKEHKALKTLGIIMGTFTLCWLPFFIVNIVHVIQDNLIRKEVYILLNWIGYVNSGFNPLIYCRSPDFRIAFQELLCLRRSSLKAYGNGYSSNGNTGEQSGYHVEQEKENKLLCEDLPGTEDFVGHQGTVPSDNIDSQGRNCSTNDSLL

In general, solubility refers to the dissolved amount per volume that the medium holds. As for `CCc1cc2c(cc1CC)CC(NC[C@H](O)c1ccc(O)c3[nH]c(=O)ccc13)C2` [indacaterol maleate, (R)-5-[2-(5,6-diethyl-indan-2-ylamino)-1-hydroxyethyl]-8-hydroxy-1H-quinolin-2-one], the solubility in series [1] (water, read-out: solubility in water) worked out at 200 µg/mL.
Regarding `CCc1cc2c(cc1CC)CC(NC[C@H](O)c1ccc(O)c3[nH]c(=O)ccc13)C2` [indacaterol, (R)-5-[2-(5,6-diethyl-indan-2-ylamino)-1-hydroxyethyl]-8-hydroxy-1H-quinolin-2-one], at β2-adrenoceptor, the duration of action result is reported as “over 24 hours” and the onset of action entry was “about 10 minutes”. Also, in series [1] (20 mM sodium maleate (pH 5.5), common ion effect), the “solubility in 20 mM maleate buffer” value was found to be 10 µg/mL (≈ 25.5 µM). The solubility in series [1] (20 mM sodium maleate buffer, pH 5.5, aqueous buffer, 20 mM sodium maleate (pH 5.5), common ion effect, read-out: solubility in 20 mM maleate buffer) was around 10 µg/mL (≈ 25.5 µM).
